From patent publication US10703748B2, “Diazanaphthalen-3-yl carboxamides and preparation and use thereof” (Samumed, LLC, priority 2017, dated 2020)
Read-outs that look alike come from different tables or passages of the source.

Tests used:
DYRK1A kinase = DYRK1A kinase (Homo sapiens, UniProt Q13627); test: DYRK1A kinase activity (Ser/Thr 18 peptide Z-lyte FRET assay); format: biochemical; conditions: recombinant DYRK1A, 30 μM ATP, one hour at room temperature;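 note: kinase activity read as coumarin/fluorescein emission ratio after development step, with unphosphorylated and phosphorylated peptide forms setting 0% and 100% controls, values from dose-response curves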
GSK3β kinase = GSK3β kinase (Homo sapiens, UniProt P49841); test: GSK3β kinase activity (Ser/Thr 09 peptide Z-lyte FRET assay); format: biochemical; conditions: recombinant kinase, 46 μM ATP, one hour at room temperature; read-out: EC50
[1] = system: secreted cytokines TNFα, IL-6 and KC-GRO; test: Secreted cytokines in Lipopolysaccharide-stimulated BV-2 cells (Table 9 does not say which cytokine); format: cell-based, mouse; conditions: read-out: EC50
[2] = system: SW480 colon carcinoma cells; test: Cell viability assay (CellTiter-Glo); conditions: for inhibition at 10 µM: SW480, read-out: percent inhibition at 10 μM
[3] = system: Wnt-responsive Sp5-Luc reporter in SW480 colon carcinoma cells; test: Screening assay for Wnt activity (Sp5-Luc reporter gene assay); conditions: for inhibition at 10 µM: SW480, read-out: percent inhibition at 10 μM
IL-6 = IL-6 inhibition in LPS-stimulated human peripheral blood mononuclear cells (HTRF); conditions: Homo sapiens, PBMC; for EC50: 22 h; for inhibition at 10 µM: read-out: percentage in parentheses after EC50 >10
[4] = system: α-smooth muscle actin (aSMA) positive LL29 cells; test: Inhibition of the fibrotic process: αSMA staining in TGF-β1 treated LL29 fibroblasts from IPF patients; conditions: for inhibition at 10 µM: read-out: percentage in parentheses after EC50 >10

Sequence of GSK3β kinase (P49841 whole entry): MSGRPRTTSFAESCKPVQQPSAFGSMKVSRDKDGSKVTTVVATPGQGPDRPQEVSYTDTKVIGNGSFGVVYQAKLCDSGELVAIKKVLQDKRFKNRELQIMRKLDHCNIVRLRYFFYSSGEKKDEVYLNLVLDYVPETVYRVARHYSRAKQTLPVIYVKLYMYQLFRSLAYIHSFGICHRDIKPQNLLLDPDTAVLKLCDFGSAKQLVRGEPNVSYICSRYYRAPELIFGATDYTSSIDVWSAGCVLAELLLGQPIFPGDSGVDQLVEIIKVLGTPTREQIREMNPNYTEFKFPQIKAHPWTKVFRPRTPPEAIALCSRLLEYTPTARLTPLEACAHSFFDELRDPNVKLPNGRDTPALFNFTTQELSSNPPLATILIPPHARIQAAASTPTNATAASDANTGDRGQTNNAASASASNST

| SMILES | EC50 (DYRK1A kinase) | EC50 (GSK3β kinase) | EC50 ([1]; Mus musculus, BV-2, 5 h) | EC50 ([2]; Homo sapiens, SW480, 96 h) | EC50 ([3]; Homo sapiens, SW480) | EC50 (IL-6) | EC50 ([4]; Homo sapiens, Fibroblast, 96 h) | inhibition at 10 µM (IL-6) | inhibition at 10 µM ([2]; Homo sapiens) | inhibition at 10 µM ([3]; Homo sapiens) | inhibition at 10 µM ([4]; Homo sapiens, Fibroblast) | EC50 ([1]; BV-2 cells, LPS 250 ng/mL 5 hours, compounds overnight, 10 μM to […], cytokine not named in Table 9) | EC50 ([2]; SW480 cells, four days, CellTiter-Glo) | percent inhibition at 10 μM ([2]; at 10 μM, given for EC50 of >10 μM, SW480 cell viability) | EC50 ([3]; SW480 Sp5-Luc reporter cells, 36 to 48 hours) | percent inhibition at 10 μM ([3]; at 10 μM, given for EC50 of >10 μM, SW480 Sp5-Luc reporter) | EC50 ([4]; LL29 fibroblasts from IPF patients, TGF-β1 20 ng/mL, 4 days, curves from 10 μM to 0.94 nM) | percentage in parentheses after EC50 >10 ([4]; LL29 fibroblasts, TGF-β1, given beside >10 μM, meaning not given) |
| --- | --- | --- | --- | --- | --- | --- | --- | --- | --- | --- | --- | --- | --- | --- | --- | --- | --- | --- |
| CN1CCC(Oc2ccc(C(=O)Nc3cc4nc(-c5cnn(C)c5)ccc4cn3)cc2)CC1 [Compound 145, N-(2-(1-methyl-1H-pyrazol-4-yl)-1,6-naphthyridin-7-yl)-4-((1-methylpiperidin-4-yl)oxy)benzamide] | 5 nM | 2000 nM | 212 nM | 535 nM | 259 nM | 3250 nM | 369 nM |  |  |  |  |  |  |  |  |  |  |  |
| CN1CCN(c2cc(C(=O)Nc3cc4nc(-c5cnn(C)c5)ccc4cn3)ccn2)CC1 [Compound 147, N-(2-(1-Methyl-1H-pyrazol-4-yl)-1,6-naphthyridin-7-yl)-2-(4-methylpiperazin-1-yl)isonicotinamide] | 7 nM | > 10000 nM | 122 nM | 311 nM | 102 nM | 2200 nM | 410 nM |  |  |  |  |  |  |  |  |  |  |  |
| CN1CCN(c2ccc(C(=O)Nc3cc4nc(-c5cnn(C)c5)ccc4cn3)cn2)CC1 [Compound 151, N-(2-(1-Methyl-1H-pyrazol-4-yl)-1,6-naphthyridin-7-yl)-6-(4-methylpiperazin-1-yl)nicotinamide] | 2 nM | 571 nM | 88 nM | 3680 nM | 498 nM | 3680 nM | 432 nM |  |  |  |  |  |  |  |  |  |  |  |
| Cn1cc(-c2ccc3cnc(NC(=O)c4ccnc(OC5CCNCC5)c4)cc3n2)cn1 [Compound 153, N-(2-(1-Methyl-1H-pyrazol-4-yl)-1,6-naphthyridin-7-yl)-2-(piperidin-4-yloxy)isonicotinamide] | 4 nM | 6000 nM | 159 nM | 353 nM | 111 nM | 2070 nM | 1100 nM |  |  |  |  |  |  |  |  |  |  |  |
| CN(C)CCNc1cc(C(=O)Nc2cc3nc(-c4cnn(C)c4)ccc3cn2)ccn1 [Compound 164, 2-((2-(Dimethylamino)ethyl)amino)-N-(2-(1-methyl-1H-pyrazol-4-yl)-1,6-naphthyridin-7-yl)isonicotinamide] | 6 nM | 4010 nM | 165 nM | 2770 nM | 585 nM | > 10000 nM | 717 nM | 17.6% |  |  |  |  |  |  |  |  |  |  |
| CN(C)Cc1ccc(C(=O)Nc2cc3nc(-c4cnn(C)c4)ccc3cn2)cc1 [Compound 170, 4-((Dimethylamino)methyl)-N-(2-(1-methyl-1H-pyrazol-4-yl)-1,6-naphthyridin-7-yl)benzamide] | 6 nM | 1870 nM | 55 nM | 3370 nM | 396 nM | 8090 nM | 1300 nM |  |  |  |  |  |  |  |  |  |  |  |
| O=C(Nc1cc2cc(-c3cncc(NCC4(F)CNC4)n3)cnc2cn1)C1CC1 [Compound 3591, N-(3-(6-(((3-Fluoroazetidin-3-yl)methyl)amino)pyrazin-2-yl)-1,7-naphthyridin-6-yl)cyclopropanecarboxamide] | 10 nM | 2270 nM | 2400 nM | > 10000 nM | > 10000 nM | > 10000 nM |  | 4.4% | 6.1% | 1.3% |  |  |  |  |  |  |  |  |
| Cn1cc(-c2ccc3cnc(NC(=O)[C@H]4CC[C@H](NC(=O)OC(C)(C)C)CC4)cc3n2)cn1 [Compound 4537, tert-Butyl (trans-4-((2-(1-methyl-1H-pyrazol-4-yl)-1,6-naphthyridin-7-yl)carbamoyl)cyclohexyl)carbamate] | 35 nM | 543 nM |  | > 10000 nM | > 10000 nM | > 10000 nM | 5270 nM | 3% | 4.7% | 25.3% |  |  |  |  |  |  |  |  |
| CN1CC(COc2cncc(-c3ccc4cnc(NC(=O)c5ccc(F)cc5)cc4n3)n2)C1 [Compound 4564, 4-fluoro-N-(2-(6-((1-methylazetidin-3-yl)methoxy)pyrazin-2-yl)-1,6-naphthyridin-7-yl)benzamide] | 1030 nM | > 10000 nM |  | > 10000 nM | > 10000 nM | > 10000 nM | > 10000 nM | 0% | 21.1% | 33.3% | 26.8% |  |  |  |  |  |  |  |
| Cn1nnnc1-c1ccc2cnc(NC(=O)C3CCN(CCC(F)(F)F)CC3)nc2c1 [Compound 4574, N-(7-(1-Methyl-1H-tetrazol-5-yl)quinazolin-2-yl)-1-(3,3,3-trifluoropropyl) piperidine-4-carboxamide] | 1410 nM | 665 nM |  | > 10000 nM | 3870 nM | > 10000 nM | > 10000 nM | 5.7% | 20.2% |  | 32.8% |  |  |  |  |  |  |  |
| Cc1ncc(-c2ccc3cnc(NC(=O)C(C)N4CCCCC4)nc3c2)n1C (centres unmarked) [Compound 4576, N-(7-(1,2-Dimethyl-1H-imidazol-5-yl)quinazolin-2-yl)-2-(piperidin-1-yl) propanamide] | 675 nM | 346 nM |  | > 10000 nM | > 10000 nM | > 10000 nM | > 10000 nM | 0% | 22.1% | 35.3% | 38.3% |  |  |  |  |  |  |  |
| CC(C)Oc1ccc(C(=O)Nc2ncc3ccc(-c4cnc5n4CCN(C)C5)cc3n2)cc1 [Compound 4577, 4-Isopropoxy-N-(7-(7-methyl-5,6,7,8-tetrahydroimidazo[1,2-a]pyrazin-3-yl)quinazolin-2-yl)benzamide] | 175 nM | > 10000 nM |  | > 10000 nM | > 10000 nM | > 10000 nM | > 10000 nM | 2.6% | 19.7% | 28.9% | 42.7% |  |  |  |  |  |  |  |
| N#CC(c1cncc(-c2ccc3cnc(NC(=O)C4CC4)nc3c2)c1)N1CCC(O)CC1 (centres unmarked) [Compound 4594, N-(7-(5-(Cyano(4-hydroxypiperidin-1-yl)methyl)pyridin-3-yl)quinazolin-2-yl)cyclopropanecarboxamide] | 35 nM | 528 nM |  | > 10000 nM | > 10000 nM | > 10000 nM | 3250 nM | 2.4% | 15% | 35.6% |  |  |  |  |  |  |  |  |
| CN1CC(COc2cncc(-c3ccc4cnc(NC(=O)c5ccc(F)cc5)nc4c3)n2)C1 [Compound 4595, 4-Fluoro-N-(7-(6-((1-methylazetidin-3-yl)methoxy)pyrazin-2-yl)quinazolin-2-yl)benzamide] | 38 nM | > 10000 nM |  | 4570 nM | > 10000 nM | > 10000 nM | > 10000 nM | 5.3% |  | 20.1% | 2.8% |  |  |  |  |  |  |  |
| CN1CCN(c2ncc(C(=O)Nc3cc4cc(-c5cnn(C)c5)ncc4cn3)s2)CC1 [Compound 4602, N-(6-(1-Methyl-1H-pyrazol-4-yl)-2,7-naphthyridin-3-yl)-2-(4-methylpiperazin-1-yl)thiazole-5-carboxamide] |  |  |  |  |  |  |  |  |  |  |  | 2900 nM | > 10000 nM | 26.1% | > 10000 nM | 10.9% | > 10000 nM | 14.3% |
